We go through 19 compounds from US11161856B2 (H. Lundbeck A/S, priority 2017, dated 2021).

One experiment has as its target T1, MGLL (Mus musculus, UniProt O35678).
T1 construct: Brain; from tissue; host or cells: mouse brain proteome
T1 sequence (O35678 1-303): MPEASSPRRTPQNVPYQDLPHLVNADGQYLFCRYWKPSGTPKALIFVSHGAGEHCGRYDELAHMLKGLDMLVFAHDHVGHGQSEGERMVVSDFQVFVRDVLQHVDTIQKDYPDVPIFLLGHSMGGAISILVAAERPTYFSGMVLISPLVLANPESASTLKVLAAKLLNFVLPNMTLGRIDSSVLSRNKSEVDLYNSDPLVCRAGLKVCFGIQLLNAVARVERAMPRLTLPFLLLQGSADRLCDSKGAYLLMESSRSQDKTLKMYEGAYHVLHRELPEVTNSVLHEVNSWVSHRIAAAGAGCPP
Nature of the experiment: In vitro competitive activity-based protein profiling, mouse brain proteome (MGLL). Type of experiment: biochemical. The conditions noted are these: concentration not given (μM).

In another experiment the target is T2, ABHD6 (Mus musculus, UniProt Q8R2Y0).
T2 construct: Brain; from tissue; host or cells: mouse brain proteome
T2 sequence (Q8R2Y0 1-336): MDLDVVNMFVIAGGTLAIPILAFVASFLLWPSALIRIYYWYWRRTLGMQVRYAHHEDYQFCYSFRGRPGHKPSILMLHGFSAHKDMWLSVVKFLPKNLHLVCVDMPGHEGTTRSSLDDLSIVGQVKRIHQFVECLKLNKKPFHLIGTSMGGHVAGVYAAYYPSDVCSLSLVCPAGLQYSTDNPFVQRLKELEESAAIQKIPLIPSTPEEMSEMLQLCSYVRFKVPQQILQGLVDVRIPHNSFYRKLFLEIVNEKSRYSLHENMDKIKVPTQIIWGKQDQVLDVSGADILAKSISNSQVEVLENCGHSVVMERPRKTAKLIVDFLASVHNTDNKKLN
Kind of experiment: In vitro competitive activity-based protein profiling, mouse brain proteome (ABHD6). The settings on record: mouse brain proteome; concentration not given (μM). The class given is biochemical. The procedure:
[The source words this procedure for another target and reports this target under the same test.] In Vitro Competitive Activity-Based Protein Profiling.
Proteomes (human prefrontal cortex or cell membrane fractions) (50 μL, 1.0 mg/mL total protein concentration) were preincubated with varying concentrations of inhibitors at 37° C. After 30 min, FP-Rh or HT-01 (1.0 μL, 50 μM in DMSO) was added and the mixture was incubated for another 30 min at room temperature. Reactions were quenched with SDS loading buffer (15 μL-4×) and run on SDS-PAGE.

For `CS(=O)(=O)N1CC2(CCN(c3cc(Cl)cc(CN4CCCC45CN(C(=O)OC(C(F)(F)F)C(F)(F)F)C5)c3)CC2)C1` [Example 240, 1,1,1,3,3,3-Hexafluoropropan-2-yl 5-(3-chloro-5-(2-(methylsulfonyl)-2,7-diazaspiro[3.5]nonan-7-yl)benzyl)-2,5-diazaspiro[3.4]octane-2-carboxylate], the “% Inh MGLL Brain (Mouse, μM)” value at MGLL is recorded as “### (### is ≥75%)”. The “% Inh ABHD6 Brain (Mouse, μM)” value at ABHD6 is “### (### is ≥75%)”. Consider `CC(=O)N1CCC2(CCN(c3ccccc3CN3CCN(C(=O)OC(C(F)(F)F)C(F)(F)F)CC3)C2)C1` (stereo not shown) [Example 166, 1,1,1,3,3,3-Hexafluoropropan-2-yl 4-(2-(7-acetyl-2,7-diazaspiro[4.4]nonan-2-yl)benzyl)piperazine-1-carboxylate], for which the “% Inh MGLL Brain (Mouse, μM)” value at MGLL is “### (### is ≥75%)”. For the same compound, the “% Inh ABHD6 Brain (Mouse, μM)” value at ABHD6 was “# (# is ≤25%)”. For the compound `CS(=O)(=O)N1CC2(CCN(c3cc(C(F)(F)F)ccc3CN3CCN(C(=O)OC(C(F)(F)F)C(F)(F)F)CC3)CC2)C1` [Example 211, 1,1,1,3,3,3-Hexafluoropropan-2-yl 4-(2-(2-(methylsulfonyl)-2,7-diazaspiro[3.5]nonan-7-yl)-4-(trifluoiomethyl)benzyl) piperazine-1-carboxylate], on MGLL, the “% Inh MGLL Brain (Mouse, μM)” value was “### (### is ≥75%)”. Further, the “% Inh ABHD6 Brain (Mouse, μM)” value at ABHD6 was “### (### is ≥75%)”.

In the case of `O=C(OC(C(F)(F)F)C(F)(F)F)N1CC2(CCN(Cc3ccc(Cl)cc3N3CCOCC3)CC2)C1` [Example 37, 1,1,1,3,3,3-Hexafluoropropan-2-yl 7-(4-chloro-2-morpholinobenzyl)-2,7-diazaspiro[3.5]nonane-2-carboxylate], at MGLL, the “% Inh MGLL Brain (Mouse, μM)” value was “### (### is ≥75%)”. The “% Inh ABHD6 Brain (Mouse, μM)” value on ABHD6 is “### (### is ≥75%)”.

Regarding `O=C(OC(C(F)(F)F)C(F)(F)F)N1CCC2(CC1)CN(Cc1c(Cl)cccc1N1CCC(F)CC1)C2` [Example 47, 1,1,1,3,3,3-Hexafluoropropan-2-yl 2-(2-chloro-6-(4-fluoropiperidin-1-yl)benzyl)-2,7-diazaspiro[3.5]nonane-7-carboxylate], the “% Inh MGLL Brain (Mouse, μM)” value on MGLL was “### (### is ≥75%)”. In addition, the “% Inh ABHD6 Brain (Mouse, μM)” value on ABHD6 is on record as “### (### is ≥75%)”. As to `O=C(OC(C(F)(F)F)C(F)(F)F)N1CC2(CCN(Cc3ccc(Cl)c(Cl)c3)CC2)C1` [Example 55, 1,1,1,3,3,3-Hexafluoropropan-2-yl 7-(3,4-dichlorobenzyl)-2,7-diazaspiro[3,5]nonane-2-carboxylate], the “% Inh MGLL Brain (Mouse, μM)” value at MGLL is “## (## is between 25 and 75%)”. On ABHD6, the “% Inh ABHD6 Brain (Mouse, μM)” value is given as “### (### is ≥75%)”. For `CC(=O)N1CCC2(CC1)CCN(c1cc(Cl)cc(CN3CCCC34CN(C(=O)OC(C(F)(F)F)C(F)(F)F)C4)c1)C2` [Example 236, 1,1,1,3,3,3-Hexafluoroprupan-2-yl 5-(3-(8-acetyl-2,8-diazaspiro[4.5]decan-2-yl)-5-chlorobenzyl)-2,5-diazaspiro[3.4]octane-2-carboxylate], at MGLL, the “% Inh MGLL Brain (Mouse, μM)” value is “### (### is ≥75%)”. The “% Inh ABHD6 Brain (Mouse, μM)” value on ABHD6 is “### (### is ≥75%)”. On to `CC(=O)N1CC2CN(c3cc(Cl)ccc3CN3CCN(C(=O)OC(C(F)(F)F)C(F)(F)F)CC3)CC2C1` (stereo not shown) [Example 202, 1,1,1,3,3,3-Hexafluoropropan-2-yl 4-(2-(5-acetylhexahydropyrrolo[3,4-c]pyrrol-2(lH)-yl)-4-chlorobenzyl)piperazine-1 - carboxylate], for which the “% Inh MGLL Brain (Mouse, μM)” value at MGLL was “### (### is ≥75%)”. On ABHD6, the “% Inh ABHD6 Brain (Mouse, μM)” value was “## (## is between 25 and 75%)”.

As for `O=C(OC(C(F)(F)F)C(F)(F)F)N1CCC2(CC1)CN(Cc1c(Cl)cccc1N1CC3COCC3C1)C2` (stereo not shown) [Example 57, 1,1,1,3,3,3-Hexafluoropropan-2-yl 2-(2-chloro-6-(tetrahydro-1H-furo[3,4-c]pyrrol-5(3H)-yl)benzyl)-2,7-diazaspiro[3.5]nonane-7-carboxylate], at MGLL, the “% Inh MGLL Brain (Mouse, μM)” value was “### (### is ≥75%)”. Besides, the “% Inh ABHD6 Brain (Mouse, μM)” value on ABHD6 is recorded as “### (### is ≥75%)”. As for `CS(=O)(=O)N1CC2(CCN(c3ccccc3CN3CCN(C(=O)OC(C(F)(F)F)C(F)(F)F)CC3)C2)C1` [Example 167, 1,1,1,3,3,3-Hexafluoropropan-2-yl 4-(2-(2-(methylsulfonyl)-2,6-diazaspiro[3,4]octan-6-yl)benzyl)piperazine-1-carboxylate], the “% Inh MGLL Brain (Mouse, μM)” value at MGLL is given as “### (### is ≥75%)”. On ABHD6, the “% Inh ABHD6 Brain (Mouse, μM)” value is reported as “# (# is ≤25%)”. Turning to `O=C(OC(C(F)(F)F)C(F)(F)F)N1CCC2(CC1)CN(Cc1ccc(C(F)(F)F)cc1N1CCOCC1)C2` [Example 36, 1,1,1,3,3,3-Hexafluoropropan-2-yl 2-(2-morpholino-4-(trifluoromethyl)benzyl)-2,7-diazaspiro[3.5]nonane-7-carboxylate], at MGLL, the “% Inh MGLL Brain (Mouse, μM)” value is reported as “### (### is ≥75%)”. Moreover, the “% Inh ABHD6 Brain (Mouse, μM)” value on ABHD6 is recorded as “### (### is ≥75%)”.

`O=C(OC(C(F)(F)F)C(F)(F)F)N1CCC2(CC1)CN(Cc1c(N3CCN(C4CC4)CC3)cccc1C(F)(F)F)C2` [Example 60, 1,1,1,3,3,3-Hexafluoropropan-2-yl 2-(2-(4-cyclopropylpiperazin-1-yl)-6-(trifluoromethyl)benzyl)-2,7-diazaspiro[3.5]nonane-7-carboxylate]: the “% Inh MGLL Brain (Mouse, μM)” value at MGLL was “### (### is ≥75%)”. The “% Inh ABHD6 Brain (Mouse, μM)” value at ABHD6 is listed as “### (### is ≥75%)”.

Take `Cc1cc(-c2ccccc2)ccc1CN1CC2(CCN(C(=O)OC(C(F)(F)F)C(F)(F)F)CC2)C1` [Example 68, 1,1,1,3,3,3-Hexafluoropropan-2-yl 2-((3-methyl-[1,1'-biphenyl]-4-yl)methyl)-2,7-diazaspiro[3,5]nonane-7-carboxylate]: the “% Inh MGLL Brain (Mouse, μM)” value on MGLL is “### (### is ≥75%)”. Also, the “% Inh ABHD6 Brain (Mouse, μM)” value at ABHD6 is reported as “### (### is ≥75%)”. For `CN1CC2CN(c3cc(Cl)ccc3CN3CCN(C(=O)OC(C(F)(F)F)C(F)(F)F)CC3)CC2C1` (stereo not shown) [Example 206, 1,1,1,3,3,3-Hexafluoropropan-2-yl 4-(4-chloro-2-(5-methylhexahydropyrrolo[3,4-c]pyrrol-2(1H)-yl)benzyl)piperazine-1-carboxylate], the “% Inh MGLL Brain (Mouse, μM)” value on MGLL is listed as “### (### is ≥75%)”. For the same compound, on ABHD6, the “% Inh ABHD6 Brain (Mouse, μM)” value is recorded as “# (# is ≤25%)”.

As to `O=C(OC(C(F)(F)F)C(F)(F)F)N1CCC2(CC1)CN(Cc1c(N3CCC4(CCOCC4)C3)cccc1C(F)(F)F)C2` [Example 52, 1,1,1,3,3,3-Hexafluoropropan-2-yl 2-(2-(8-oxa-2-azaspiro[4.5]decan-2-yl)-6-(trifluoromethyl)benzyl)-2,7-diazaspiro[3.5]nonane-7-carboxylate], at MGLL, the “% Inh MGLL Brain (Mouse, μM)” value is on record as “### (### is ≥75%)”. Moreover, the “% Inh ABHD6 Brain (Mouse, μM)” value at ABHD6 is “### (### is ≥75%)”. For `CC(=O)N1CC2CN(c3cc(C(F)(F)F)ccc3CN3CCN(C(=O)OC(C(F)(F)F)C(F)(F)F)CC3)CC2C1` (stereo not drawn) [Example 200, 1,1,1,3,3,3-Hexafluoropropan-2-yl 4-(2-(5-acetylhexahydropyrrolo[3,4-c]pyrrol-2(lH)-yl)-4-(trifluoromethyl)benzyl)pipera zine-l-carboxylate], the “% Inh MGLL Brain (Mouse, μM)” value on MGLL is recorded as “### (### is ≥75%)”. For the same compound, the “% Inh ABHD6 Brain (Mouse, μM)” value on ABHD6 is “# (# is ≤25%)”. As for `CC(=O)N1CCC2(CCN(c3cc(Cl)ccc3CN3CCN(C(=O)OC(C(F)(F)F)C(F)(F)F)CC3)CC2)C1` [Example 178, 1,1,1,3,3,3-Hexafluoropropan-2-yl 4-(2-(2-acetyl-2,8-diazaspiro[4.5]decan-8-yl)-4-chlorobenzyl)piperazine-1-carboxylate], at MGLL, the “% Inh MGLL Brain (Mouse, μM)” value is on record as “### (### is ≥75%)”. Also, the “% Inh ABHD6 Brain (Mouse, μM)” value on ABHD6 was “# (# is ≤25%)”.

Turning to `CC(=O)N1CC2(CCN(c3cc(C(F)(F)F)ccc3CN3CCN(C(=O)OC(C(F)(F)F)C(F)(F)F)CC3)CC2)C1` [Example 216, 1,1,1,3,3,3-Hexafluoropropan-2-yl 4-(2-(2-acetyl-2,7-diazaspiro[3.5]nonan-7-yl)-4-(trifluoromethyl)benzyl) piperazine-1-carboxylate], the “% Inh MGLL Brain (Mouse, μM)” value at MGLL is given as “### (### is ≥75%)”. In addition, on ABHD6, the “% Inh ABHD6 Brain (Mouse, μM)” value was “## (## is between 25 and 75%)”. Regarding `CCN1CCC2(CCN(c3cc(Cl)cc(CN4CCCC45CN(C(=O)OC(C(F)(F)F)C(F)(F)F)C5)c3)CC2)C1` [Example 235, 1,1,1,3,3,3-Hexafluoropropan-2-yl 5-(3-chloro-5-(2-ethyl-2,8-diazaspiro[4.5]decan-8-yl)benzyl)-2,5-diazaspiro[3.4]octane-2-carboxylate], the “% Inh ABHD6 Brain (Mouse, μM)” value on ABHD6 is recorded as “### (### is ≥75%)”.
